Results published in DBAASP.
Converted amounts (≈) assume the structure as drawn. Blank lines part the entries; values can stand above or below the compound they belong to.

Experiments:
Assay in all cases: ≥ marks a high value that may be exact or a test limit, other limits are often not marked, values filed in µg/mL are converted to µM
[1] = system: Bacillus subtilis ATCC 6633
[2] = system: Staphylococcus aureus ATCC 6538P
[3] = system: Klebsiella pneumoniae ATCC 10031
[4] = system: Escherichia coli ATCC 25922
[5] = system: Micrococcus luteus ATCC 10240
[6] = system: Staphylococcus epidermidis ATCC 12228
[7] = system: Salmonella enterica subsp. enterica serovar Typhimurium ATCC 14028
[8] = system: Shigella dysenteriae ATCC 9752
[9] = system: Pseudomonas aeruginosa ATCC 27853
[10] = system: Staphylococcus aureus TK784
[11] = system: Bacillus subtilis DSM 347
[12] = system: Escherichia coli DSM 10233
Escherichia coli 1103 = system: Escherichia coli 1103
Escherichia coli BL21AI = system: Escherichia coli BL21AI
[13] = system: Klebsiella pneumoniae DSM 681
[14] = system: Streptococcus mutans ATCC 25175
[15] = system: Salmonella enterica subsp. enterica serovar Enteritidis ATCC 13076
[16] = system: Staphylococcus aureus ATCC 15752
[17] = system: Escherichia coli ATCC 27325
[18] = system: Cryptococcus neoformans ATCC 34881
[19] = system: Saccharomyces cerevisiae ATCC 44774
[20] = system: Bacillus subtilis ATCC 62037
[21] = system: Candida albicans ATCC 10231
[22] = system: Pseudomonas putida ATCC 17426
[23] = system: Candida albicans TIMM 1768
[24] = system: Salmonella typhimurium KCTC 1926
[25] = system: Streptococcus pyogenes KCTC 3096
[26] = system: Escherichia coli KCTC 1682
[27] = system: Bacillus subtilis KCTC 1918
[28] = system: Pseudomonas aeruginosa KCTC 1637
[29] = system: Staphylococcus aureus KCTC 1621
[30] = system: Aspergillus fumigatus KCTC 4165
[31] = system: Staphylococcus aureus KO-4
[32] = system: Trichophyton mentagrophytes IFO 5466
Pseudomonas aeruginosa = system: Pseudomonas aeruginosa
[33] = system: Trypanosoma brucei brucei GUT Tat3.1
[34] = system: Staphylococcus epidermidis KCTC 1917
[35] = system: Staphylococcus aureus CCARM 3543
[36] = system: Bacillus subtilis KCTC 3068
[37] = system: Pseudomonas aeruginosa CCARM 2095
[38] = system: Pseudomonas aeruginosa CCARM 2109
[39] = system: Staphylococcus aureus CCARM 3001

SMILES: CC[C@H](C)[C@H](NC(=O)[C@@H]1CCCN1C(=O)[C@H](CCC(N)=O)NC(=O)[C@@H]1CCCN1C(=O)[C@H](CCCN=C(N)N)NC(=O)[C@@H]1CCCN1C(=O)[C@@H]1CCCN1C(=O)[C@H](Cc1cnc[nH]1)NC(=O)[C@@H]1CCCN1C(=O)[C@H](CCCN=C(N)N)NC(=O)[C@@H](N)CC(C)C)C(=O)N[C@@H](Cc1ccc(O)cc1)C(=O)N[C@H](C(=O)N1CCC[C@H]1C(=O)N[C@@H](CCCN=C(N)N)C(=O)N[C@@H](CC(N)=O)C(=O)N[C@@H](CC(N)=O)C(=O)NCC(N)=O)C(C)C [LRPHPPRPQPIYVPRNNG]
- MIC [11]: ≥ 59.3 µM
- MIC [12]: ≥ 59.3 µM
- MIC (Escherichia coli 1103): ≥ 59.3 µM
- MIC [5]: ≥ 59.3 µM
- MIC (Escherichia coli BL21AI): ≥ 59.3 µM
- MIC [13]: ≥ 59.3 µM

SMILES: CC[C@H](C)[C@H](NC(=O)[C@H](CCCN=C(N)N)NC(=O)[C@H](CC(C)C)NC(=O)[C@H](Cc1ccc(O)cc1)NC(=O)[C@H](CC(C)C)NC(=O)[C@@H](N)CCCN=C(N)N)C(=O)NCC(=O)N[C@@H](CCCN=C(N)N)C(=O)N[C@@H](CCCN=C(N)N)C(N)=O [RLYLRIGRR]
- MIC [31]: ≥ 499 µM
- MIC [32]: 20.8 µM (≈ 25 µg/mL)
- MIC (Pseudomonas aeruginosa): 333 µM (≈ 400 µg/mL)
- MIC [33]: ≥ 205 µM

SMILES: NC(=O)[C@H](CCCN=C(N)N)NC(=O)[C@H](CCCN=C(N)N)NC(=O)[C@H](Cc1c[nH]c2ccccc12)NC(=O)[C@H](CCCN=C(N)N)NC(=O)[C@H](CCCN=C(N)N)NC(=O)[C@H](Cc1c[nH]c2ccccc12)NC(=O)[C@H](CCCN=C(N)N)NC(=O)[C@H](CCCN=C(N)N)NC(=O)[C@H](Cc1c[nH]c2ccccc12)NC(=O)[C@H](CCCN=C(N)N)NC(=O)[C@@H](N)CCCN=C(N)N [RRWRRWRRWRR]
- MIC [24]: 4 µM (≈ 7.3 µg/mL)
- MIC [34]: 2 µM (≈ 3.65 µg/mL)
- MIC [35]: 4 µM (≈ 7.3 µg/mL)
- MIC [26]: 8 µM (≈ 14.6 µg/mL)
- MIC [28]: 8 µM (≈ 14.6 µg/mL)
- MIC [36]: 4 µM (≈ 7.3 µg/mL)
- MIC [29]: 8 µM (≈ 14.6 µg/mL)
- MIC [37]: 16 µM (≈ 29.2 µg/mL)
- MIC [38]: 16 µM (≈ 29.2 µg/mL)
- MIC [39]: 8 µM (≈ 14.6 µg/mL)

The next lines start with the values.

- MIC [1]: 13.3 µM (≈ 20 µg/mL)
- MIC [2]: 6.67 µM (≈ 9.99 µg/mL)
- MIC [3]: ≥ 53.4 µM
- MIC [4]: 13.3 µM (≈ 20 µg/mL)
- MIC [5]: 26.7 µM (≈ 40 µg/mL)
- MIC [6]: 26.7 µM (≈ 40 µg/mL)
- MIC [7]: > 53.4 µM
- MIC [8]: ≥ 53.4 µM
- MIC [9]: 26.7 µM (≈ 40 µg/mL)
- MIC [10]: ≥ 53.4 µM
SMILES: CC(C)C[C@H](NC(=O)[C@H](Cc1c[nH]c2ccccc12)NC(=O)[C@H](CCCCN)NC(=O)[C@H](CCCCN)NC(=O)[C@H](CC(C)C)NC(=O)[C@H](Cc1c[nH]c2ccccc12)NC(=O)[C@H](CCCCN)NC(=O)[C@H](CCCCN)NC(=O)[C@@H](N)CC(C)C)C(=O)N[C@@H](CCCCN)C(=O)N[C@@H](CCCCN)C(N)=O [LKKWLKKWLKK]

- MIC [14]: 8.23 µM (≈ 16 µg/mL)
- MIC [15]: 8.23 µM (≈ 16 µg/mL)
- MIC [16]: 8.23 µM (≈ 16 µg/mL)
- MIC [17]: 2.06 µM (≈ 4 µg/mL)
- MIC [18]: 4.12 µM (≈ 8 µg/mL)
- MIC [19]: 4.12 µM (≈ 8 µg/mL)
- MIC [20]: 4.12 µM (≈ 8 µg/mL)
- MIC [21]: 8.23 µM (≈ 16 µg/mL)
- MIC [22]: 2.06 µM (≈ 4 µg/mL)
SMILES: CC(C)[C@H](NC(=O)[C@H](CCCCN)NC(=O)CNC(=O)CNC(=O)[C@H](CCC(N)=O)NC(=O)[C@H](CCCCN)NC(=O)CNC(=O)[C@H](CCCN=C(N)N)NC(=O)CNC(=O)[C@H](C)N)C(=O)N[C@@H](CCCN=C(N)N)C(=O)N[C@@H](C)C(=O)N[C@@H](CCCCN)C(=O)N[C@@H](C)C(=O)N[C@@H](CCCCN)C(=O)N[C@H](C(=O)N[C@@H](CCCN=C(N)N)C(=O)N[C@@H](CO)C(=O)N[C@@H](CO)C(=O)O)[C@@H](C)O [AGRGKQGGKVRAKAKTRSS]

- MIC [23]: 25 µM (≈ 53.7 µg/mL)
- MIC [24]: 6.25 µM (≈ 13.4 µg/mL)
- MIC [25]: 25 µM (≈ 53.7 µg/mL)
- MIC [26]: 12.5 µM (≈ 26.8 µg/mL)
- MIC [27]: 12.5 µM (≈ 26.8 µg/mL)
- MIC [28]: 3.12 µM (≈ 6.7 µg/mL)
- MIC [29]: 12.5 µM (≈ 26.8 µg/mL)
- MIC [30]: 25 µM (≈ 53.7 µg/mL)
SMILES: CC[C@H](C)[C@H](NC(=O)[C@H](CCCCN)NC(=O)[C@H](CCCCN)NC(=O)[C@H](CC(C)C)NC(=O)[C@H](CCCCN)NC(=O)[C@H](CCC(=O)O)NC(=O)CN)C(=O)NCC(=O)N[C@@H](CCCCN)C(=O)N[C@@H](CCCCN)C(=O)N[C@H](C(=O)N[C@@H](CCCCN)C(=O)N[C@@H](CC(N)=O)C(=O)N[C@@H](Cc1ccccc1)C(=O)N[C@@H](Cc1ccccc1)C(=O)N[C@@H](CCC(N)=O)C(=O)N[C@@H](CCCCN)C(=O)N[C@@H](CC(C)C)C(=O)O)[C@@H](C)CC [GEKLKKIGKKIKNFFQKL]
